Measurements taken from ChEMBL document CHEMBL1148689, “Isolation of new phenylacetylingol derivatives that reactivate HIV-1 latency and a novel spirotriterpenoid from Euphorbia officinarum latex” (2007).
Calls of active or inactive are those of the source. The rule behind the calls is not given here.

Assays:
[1] = system: Jurkat; experiment: Induction of HIV-LTR transactivation assessed by GFP expression in Jurkat cells at 10 ng/ml after 36 hrs by flow cytometry; format: cell-based; conditions: Human immunodeficiency virus
[2] = system: Jurkat; experiment: Induction of HIV-LTR transactivation assessed by GFP expression in Jurkat cells at 25 uM after 36 hrs by flow cytometry; format: cell-based; conditions: Human immunodeficiency virus
[3] = system: Jurkat; experiment: Induction of HIV-LTR transactivation assessed by GFP expression in Jurkat cells at 10 uM after 36 hrs by flow cytometry; format: cell-based; conditions: Human immunodeficiency virus
[4] = system: Jurkat; experiment: Cell cycle arrest in human Jurkat cells assessed as accumulation at sub-G0 phase at 10 uM after 36 hrs by flow cytometry; format: functional
[5] = system: Jurkat; experiment: Cell cycle arrest in human Jurkat cells assessed as accumulation at S phase at 10 uM after 36 hrs by flow cytometry; format: functional
[6] = system: Jurkat; experiment: Cell cycle arrest in human Jurkat cells assessed as accumulation at S phase at 50 uM after 36 hrs by flow cytometry; format: functional
[7] = system: Jurkat; experiment: Induction of HIV-LTR transactivation assessed by GFP expression in Jurkat cells at 50 uM after 36 hrs by flow cytometry; format: cell-based; conditions: Human immunodeficiency virus
[8] = system: Jurkat; experiment: Cell cycle arrest in human Jurkat cells assessed as accumulation at G2/M phase at 10 uM after 36 hrs by flow cytometry; format: functional
[9] = system: Jurkat; experiment: Cell cycle arrest in human Jurkat cells assessed as accumulation at sub-G0 phase at 50 uM after 36 hrs by flow cytometry; format: functional
[10] = system: Jurkat; experiment: Cell cycle arrest in human Jurkat cells assessed as accumulation at G0/G1 phase at 50 uM after 36 hrs by flow cytometry; format: functional
[11] = system: Jurkat; experiment: Cell cycle arrest in human Jurkat cells assessed as accumulation at G2/M phase at 50 uM after 36 hrs by flow cytometry; format: functional
[12] = system: Jurkat; experiment: Cell cycle arrest in human Jurkat cells assessed as accumulation at G0/G1 phase at 10 uM after 36 hrs by flow cytometry; format: functional

Structure (SMILES)	Activity [1] [%]	Activity [2]	Activity [3]	Activity [4] [%]	Activity [5] [%]	Activity [6] [%]	Activity [7]	Activity [8] [%]	Activity [9] [%]	Activity [10] [%]	Activity [11] [%]	Activity [12] [%]
CCCCCCCCCCCCCC(=O)O[C@@H]1[C@@H](C)[C@@]2(O)[C@@H](C=C(CO)C[C@]3(O)C(=O)C(C)=C[C@@H]23)[C@@H]2C(C)(C)[C@]12OC(C)=O	97.3											
COc1ccc(CC(=O)O[C@H]2[C@@H](C)C[C@@]34O[C@@]23/C=C(\C)C(OC(C)=O)[C@H](OC(C)=O)[C@H]2[C@@H]([C@@H](OC(C)=O)[C@@H](C)C4=O)C2(C)C)cc1 (some centres undefined)		inactive	inactive	1.59	21	21.7	inactive	16.4	1.95	61.5	14.7	60.9
CO[C@H]1C(OC(C)=O)/C(C)=C/[C@@]23O[C@@]2(C[C@H](C)[C@@H]3OC(=O)Cc2ccccc2)C(=O)[C@H](C)[C@H](OC(C)=O)[C@@H]2[C@H]1C2(C)C (some centres undefined)		66%	25.5%	2.34	9.01	5.31	83.5%	10.8	3.97	81.4	9.22	77.8
CC(=O)OC1/C(C)=C/[C@@]23O[C@@]2(C[C@H](C)[C@@H]3OC(=O)Cc2ccccc2)C(=O)[C@H](C)[C@H](OC(C)=O)[C@@H]2[C@H]([C@H]1OC(C)=O)C2(C)C (some centres undefined)		inactive	inactive	1.52	20.9	18.7	inactive	15.9	1.38	66.2	13.4	61.5
